Experimental data reported in PubChem BioAssay (NCI).
Where “and” joins values, the source holds several entries; their conditions need not be identical. Equal entries are not always repeated.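 Tested at 5 concentrations; 48 h exposure; 96-well plates; endpoints linearly interpolated, else capped at highest concentration. The concentration for 50% growth inhibition is given as GI50. TGI: total growth inhibition.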

Legend:
Assay in all cases: NCI-60 cell line screen, 48 h
[1] = system: MALME-3M melanoma
[2] = system: EKVX NSCLC
[3] = system: K-562 leukemia
[4] = system: IGROV1 ovarian
[5] = system: HCT-116 colon
[6] = system: CCRF-CEM leukemia
[7] = system: NCI-H226 lung
[8] = system: M14 melanoma
[9] = system: MDA-MB-231 breast
[10] = system: RPMI-8226 leukemia
[11] = system: KM12 colon
[12] = system: COLO 205 colon
[13] = system: SNB-75 CNS
[14] = system: RXF 393 renal
[15] = system: T-47D breast

Row | SMILES | TGI [1] | TGI [2] | TGI [3] | TGI [4] | TGI [5] | TGI [6] | TGI [7] | TGI [8] | TGI [9] | TGI [10] | TGI [11] | TGI [12] | TGI [13] | TGI [14] | TGI [15] | GI50 [2] | GI50 [4] | GI50 [13] | GI50 [7] | GI50 [9]
1 | Nc1nc(NNc2ccccc2F)cc(=O)[nH]1 | > 100 µM | > 100 µM | > 100 µM | > 100 µM | > 100 µM | > 100 µM | > 100 µM | > 100 µM | > 100 µM | > 100 µM | > 100 µM | > 100 µM |  |  |  |  |  |  |  | 
2 | CCOC(=O)c1ncn2c1[nH]c(=O)c1ccccc12 | > 100 µM | > 100 µM | > 100 µM | > 100 µM | > 100 µM | > 100 µM | > 100 µM | > 100 µM |  | > 100 µM | > 100 µM | > 100 µM | > 100 µM | > 100 µM |  |  |  |  |  | 
3 | O=[N+]([O-])c1ccc(OP(=O)(O)OCC2OC(CP(=O)(O)O)C(O)C2O)cc1 (centres undefined) |  | > 100 µM | > 100 µM | > 100 µM | > 100 µM | > 100 µM |  | > 100 µM | > 100 µM |  | > 100 µM | > 100 µM |  | > 100 µM | > 100 µM |  |  |  |  | 
4 | CC12OC3(C(O)C1O)C(C(=O)O[C@H]3CO[Si](C)(C)C(C)(C)C)C2S(=O)(=O)c1ccccc1 (some centres undefined) |  | > 100 µM | > 100 µM | 97.4 µM | > 100 µM |  | 58.3 µM | > 100 µM | > 100 µM | 70.8 µM | > 100 µM |  | 90.4 µM |  | 79.3 µM |  |  |  |  | 
5 | CCOC(=O)C1=COC(C)(C)CC1=O |  | > 100 µM | > 100 µM |  | > 100 µM |  |  | > 100 µM | > 100 µM | > 100 µM | > 100 µM | > 100 µM | > 100 µM | > 100 µM | > 100 µM |  |  |  |  | 
6 | O=C(OCC(Cl)(Cl)Cl)N1CC[C@@H](C2CCCCC2)C1 |  | 51.7 µM | 50.1 µM | > 100 µM | 80.7 µM | 46.7 µM |  | 96.5 µM | > 100 µM |  | 31.8 µM | 56.3 µM | 48.7 µM | 37.1 µM | > 100 µM |  |  |  |  | 
7 | Cc1ccc(S(=O)(=O)N/N=C2/C3C(CC2(C)C)C2(C)CCCC3(C)C2O)cc1 (centres undefined) | 45.4 µM | > 100 µM | > 100 µM | 69.8 µM | 33.9 µM | 59.4 µM | 35.3 µM | 56.3 µM |  | > 100 µM | 35.1 µM | 31.8 µM | 39.3 µM |  | 54.5 µM |  |  |  |  | 
8 | CC1(Br)S(=O)(=O)OCCOS1(=O)=O | > 100 µM | > 100 µM | > 100 µM | > 100 µM | > 100 µM | > 100 µM | > 100 µM | > 100 µM |  | > 100 µM |  | > 100 µM | > 100 µM | > 100 µM |  |  |  |  |  | 
9 | CSC1=N/C(=C\c2ccccc2)C(=O)N1CN1CCOCC1 | > 100 µM | > 100 µM | > 100 µM | > 100 µM | > 100 µM | > 100 µM | > 100 µM | > 100 µM | > 100 µM | > 100 µM | > 100 µM | > 100 µM | > 100 µM |  |  |  |  |  |  | 
10 | N#Cc1c(N)nc2c(N=Nc3ccccc3)c(N)nn2c1Nc1ccccc1 | 49.7 µM | > 100 µM | > 100 µM | 29.3 µM | 27 µM | > 100 µM | 53.9 µM | 31.5 µM | 47.6 µM | 16.2 µM | 18.1 µM | 30.2 µM | 70.3 µM | 29.2 µM |  |  |  |  |  | 
11 | CCNC(=S)Nc1c(C#N)c2n(c1C(=O)OCC)CCCCC2 |  | > 100 µM | > 100 µM | > 100 µM | > 100 µM | > 100 µM | > 100 µM | > 100 µM | > 100 µM | > 100 µM | > 100 µM | > 100 µM | > 100 µM | > 100 µM | > 100 µM |  |  |  |  | 
12 | CC(=O)N1N=C(c2ccccc2Nc2ccccc2C2=NN(C(C)=O)C(c3ccccc3)O2)OC1c1ccccc1 (centres undefined) | > 100 µM | > 100 µM | > 100 µM | > 100 µM | > 100 µM |  | > 100 µM | > 100 µM | > 100 µM | > 100 µM |  | > 100 µM |  | > 100 µM | > 100 µM |  |  |  |  | 
13 | C=CC(Br)(CBr)CCC(Br)C(C)(C)Br (centres undefined) | 30.4 µM |  | 66 µM | 28.5 µM | 28.3 µM |  | 32.8 µM | 28.3 µM |  | 11.9 µM | 22.3 µM | 28.8 µM | 22.3 µM | 28.8 µM |  |  |  |  |  | 
14 | N#Cc1nc(-c2ccccc2O)oc1N |  | > 100 µM | > 100 µM | > 100 µM | > 100 µM | > 100 µM |  | > 100 µM | > 100 µM | > 100 µM | > 100 µM |  |  | > 100 µM |  |  |  |  |  | 
15 | c1ccc2c(c1)ccc1nc3ccccn3c12 | > 100 µM | > 100 µM | > 100 µM | > 100 µM |  | > 100 µM | > 100 µM | > 100 µM |  | > 100 µM | > 100 µM | > 100 µM | > 100 µM | > 100 µM | > 100 µM |  |  |  |  | 
16 | Cc1no[n+]([O-])c1/C=N/NS(=O)(=O)c1ccccc1 | > 100 µM | > 100 µM | > 100 µM | > 100 µM | > 100 µM |  |  | > 100 µM |  | > 100 µM | > 100 µM | > 100 µM |  | > 100 µM |  |  |  |  |  | 
17 | CC(C)(C)OC(=O)N(CCCCNC(=O)c1ccccc1)CCCNC(=O)c1ccccc1 |  | > 100 µM | > 100 µM | > 100 µM | > 100 µM | > 100 µM | > 100 µM | > 100 µM | > 100 µM | > 100 µM | > 100 µM | > 100 µM | > 100 µM | > 100 µM | > 100 µM |  |  |  |  | 
18 | Cc1ccc(S(=O)(=O)C(C#N)c2nc3ccccc3nc2N2CCOCC2)cc1 (centres undefined) | 63.5 µM | > 100 µM |  | 59.1 µM | 38.4 µM | 62.2 µM | > 100 µM | > 100 µM |  | 87.6 µM | 38.2 µM | > 100 µM | > 100 µM |  |  |  |  |  |  | 
19 | C=C(C)C1Cc2c(cc(OC)c3c(=O)c4ccccc4n(C)c23)O1 (centres undefined) | > 100 µM | > 100 µM | > 100 µM | > 100 µM | > 100 µM | > 100 µM | > 100 µM | > 100 µM |  | > 100 µM | > 100 µM | > 100 µM | > 100 µM | > 100 µM |  |  |  |  |  | 
20 | COc1ccccc1NC(=O)CC(=O)n1nc(-c2ccccc2)c(N=Nc2ccccc2[N+](=O)[O-])c1-c1ccccc1 | > 100 µM | > 100 µM | > 100 µM | > 100 µM | > 100 µM | > 100 µM | > 100 µM | > 100 µM |  | > 100 µM | > 100 µM | > 100 µM | > 100 µM | > 100 µM |  |  |  |  |  | 
21 | Cc1ccc(S(=O)(=O)Nn2c(C)cc3ccc(S(=O)(=O)Nc4ccccc4[N+](=O)[O-])cc3c2=O)cc1 | > 100 µM | > 100 µM | > 100 µM | > 100 µM | > 100 µM | > 100 µM | > 100 µM | > 100 µM | > 100 µM | > 100 µM | > 100 µM | 44.1 µM | > 100 µM |  |  |  |  |  |  | 
22 | COc1ccc(N2C(=O)C(C#N)=C(SC)C(C#N)C2=O)cc1 (centres undefined) | > 100 µM | > 100 µM | > 100 µM | > 100 µM | > 100 µM | > 100 µM | > 100 µM | > 100 µM | > 100 µM |  | > 100 µM | > 100 µM | > 100 µM | > 100 µM |  |  |  |  |  | 
23 | COc1cc(CC(C)N[C@@H](C)c2ccccc2)cc(OC)c1 (some centres undefined) |  | 26.4 µM and > 100 µM |  | 24.3 µM and > 100 µM | 26 µM and > 100 µM | 24 µM and > 100 µM | 38.2 µM and > 100 µM | 21.9 µM and > 100 µM | 27.2 µM and > 100 µM | 11.6 µM and > 100 µM | > 100 µM |  | 12.9 µM and > 100 µM | > 100 µM | 18.3 µM and > 100 µM | 12.2 µM and > 100 µM | 10.6 µM and > 100 µM | 2.9 µM and 24.7 µM | 15.1 µM and > 100 µM | 12.8 µM and > 100 µM
24 | CC(=O)O[C@@H]1[C@@H](C)[C@]2(CC(c3ccoc3)OC2O)C2CCC3O[C@]3(C)[C@]2(C)[C@@H]1OC(C)=O (some centres undefined) |  | > 100 µM |  | > 100 µM | > 100 µM | 61.5 µM | 87.9 µM | > 100 µM | > 100 µM | 60.7 µM | 86.8 µM | 40 µM | > 100 µM | > 100 µM | 86.8 µM |  |  |  |  | 
25 | c1csc(-c2cscc2-c2cccs2)c1 |  | > 100 µM | > 100 µM | > 100 µM | > 100 µM | > 100 µM | 65.4 µM | > 100 µM | > 100 µM | > 100 µM | > 100 µM | > 100 µM | > 100 µM | 77.7 µM | > 100 µM |  |  |  |  | 
26 | O=S(=O)(c1ccccc1)n1cnc(CCc2ccccc2)n1 | > 100 µM |  | > 100 µM | > 100 µM | > 100 µM | > 100 µM | > 100 µM | > 100 µM |  | > 100 µM | > 100 µM | > 100 µM | > 100 µM | > 100 µM |  |  |  |  |  | 
27 | O=C(/C=C/c1cc(F)ccc1F)OCCc1ccccc1 | > 100 µM | > 100 µM | > 100 µM | > 100 µM | > 100 µM | > 100 µM | > 100 µM | > 100 µM | > 100 µM | > 100 µM | > 100 µM | > 100 µM | > 100 µM | > 100 µM |  |  |  |  |  | 
